From patent publication US10100006B2, “Compound having immune disease treatment effect and use thereof” (THE CATHOLIC UNIVERSITY OF KOREA INDUSTRY—ACADEMIC …, priority 2014, dated 2018)

Tests used:
[1] = test system: Total IgG; experiment: Autoantibody production, sandwich ELISA: Total IgG; assay type: cell-based, mouse
[2] = test system: IgG1; experiment: Autoantibody production, sandwich ELISA: IgG1; assay type: cell-based, mouse
[3] = test system: IgG2; experiment: Autoantibody production, sandwich ELISA: IgG2; assay type: cell-based, mouse
[4] = test system: IL-17; experiment: Production of inflammatory cytokines, ELISA: IL-17, mouse spleen cells; assay type: cell-based
[5] = test system: IL-17; experiment: Production of inflammatory cytokines, ELISA: IL-17, lymphocytes of human peripheral blood; assay type: cell-based; conditions: D: Lymphocytes of human peripheral blood
Experimental: (§1) Further, in a lupus-developed mouse model, a sanroque mouse used in a lupus model in the art was used and the human P.B group was used by obtaining lymphocytes from the human peripheral blood. The isolation of spleen cells and the isolation of lymphocytes from each mouse and the human peripheral blood were performed by a general method which was widely known in the art and the obtained cells were incubated for 72 h under the anti-CD3 0.5 μg/ml stimulation condition, activated, and then used.
(§2) In order to verify whether the novel compounds of the present invention have an effect on inflammation and the production of inflammatory cytokines as cause substances of the immune diseases, the inventors analyzed the production degree of IL-17, IL-6, TNF-α, IFN-γ, MMP-9, and STAT-3 and the expression degree of mRNA of these cytokines by targeting each test group. The production degree of the inflammatory cytokines was analyzed through an ELISA after obtaining a supernatant by targeting cells which were treated with the compound of the present invention and incubated, and particularly, the cells reacted with cytokine-specific antibodies anti-IL-17, anti-IL-6, anti-TNF-α, anti-IFN-γ, anti-MMP-9, and anti-STAT-3 all night at […] and then non-specific binding was blocked with a blocking solution (1% BSA/PBST). Thereafter, each biotinylated antibody was reacted at room temperature for 2 hrs, washed four times, and then reacted at room temperature for 2 hrs after diluting and adding an extravidin-alkaline phosphatase conjugate. Thereafter, a PNPP/DEA solution was added and colored, and then the absorbance was measured at a wavelength of 405 nm.

[6] = test system: IL-6; experiment: Production of inflammatory cytokines, ELISA: IL-6, mouse spleen cells; assay type: cell-based
[7] = test system: TNF-a; experiment: Production of inflammatory cytokines, ELISA: TNF-a, mouse spleen cells; assay type: cell-based
[8] = test system: IFN-r; experiment: Production of inflammatory cytokines, ELISA: IFN-r, mouse spleen cells; assay type: cell-based
[9] = test system: IFN-r; experiment: Production of inflammatory cytokines, ELISA: IFN-r, lymphocytes of human peripheral blood; assay type: cell-based; conditions: D: Lymphocytes of human peripheral blood
Experimental: as §1, §2

[10] = test system: TNF-a; experiment: Inflammatory gene expression, RT-PCR: TNF-a; assay type: cell-based, mouse; conditions: control = 1
[11] = test system: MMP-9; experiment: Inflammatory gene expression, RT-PCR: MMP-9; assay type: cell-based, mouse; conditions: control = 1
[12] = test system: STAT3; experiment: Inflammatory gene expression, RT-PCR: STAT3; assay type: cell-based; conditions: A: Normal mouse cells; control = 1
[13] = test system: Th17 cells; experiment: Inhibition of Th17 cells, flow cytometry; assay type: cell-based, mouse
[14] = test system: Treg cells; experiment: Treg cell-induced activity, flow cytometry; assay type: cell-based, mouse; conditions: TCR condition
[15] = test system: osteoclasts; experiment: Inhibition of differentiation of osteoclasts, TRAP staining; assay type: cell-based, mouse; conditions: M-CSF and RANKL
[16] = test system: cells in each test group disclosed in Table 3; experiment: Cytotoxicity analysis (MTT assay); assay type: cell-based, mouse; human; conditions: treatment for each concentration, 72 hrs; normal cells and disease-group cells; compared with control or metformin-treated group
Experimental: In order to verify whether the compounds synthesized in the present invention causes the cytotoxicity in the cells, an MTT assay was performed, target cells were divided to be the number of 2×10^5 cells per well on a 96 well plate, treated with the compounds of the present invention for each concentration, incubated for 72 hrs, added with an MTT solution (0.5% 3-4,5-dimethyl thiazol-2-yl)-2,5-diphenyl-2H-tetrazolium bromide), and incubated for 4 hrs again. Thereafter, absorbance at 540 nm was measured by an enzymelinked immunospecific assay (ELISA) meter to observe the cytotoxicity.
In order to verify whether the novel compounds synthesized in Example 1 have the cytotoxicity, a cell survival rate was verified through the MTT assay by targeting cells in each test group disclosed in Table 3 above. That is, the cells of each test group were divided according to the number of 2×10^5 cells per well and treated with the novel synthesized compounds of the present invention for each concentration, and the cell survival rate was analyzed.

[17] = test system: IL-17; experiment: Inhibition of IL-17 production in anti-CD3 stimulated spleen cells of mouse, ELISA (Experimental Example 6); assay type: cell-based; conditions: spleen cells of DBA1/J normal mouse, anti mouse CD3 0.5 μg/ml, compound 200 and 500 μM; FIG. 24
Experimental: (§3) Furthermore, the inventors verified that inhibition degree of IL-17 and TNF-α as the inflammatory cytokines through an ELISA after treating anti mouse CD3 at a concentration of 0.5 μg/ml in the cells obtained from the spleen of a DBA1/J normal mouse group and commonly stimulating each compound at a concentration of 200 and 500 μM, in order to evaluating efficacy in an effect of inhibiting the inflammatory cytokines by targeting the compounds synthesized in Examples of the present invention.

[18] = test system: TNF-α; experiment: Inhibition of TNF-α production in anti-CD3 stimulated spleen cells of mouse, ELISA (Experimental Example 6); assay type: cell-based; conditions: spleen cells of DBA1/J normal mouse, anti mouse CD3 0.5 μg/ml, compound 200 and 500 μM; FIG. 24
Experimental: as §3

[19] = TCR condition, A: Normal mouse cells
[20] = TCR condition, B: Rheumatoid arthritis cells
[21] = Th17 condition (Th17 differentiation condition), A: Normal mouse cells

CCN(C(=N)NC(=N)N)c1ccc(F)c(F)c1 [SD-281, N-(3,4-Difluorophenyl)-N-ethylbiguanide]
Total IgG ([1]; A: Normal mouse cells): 2.3 ng/mL
Total IgG ([1]; B: Rheumatoid arthritis cells): 58.1 ng/mL
Total IgG ([1]; C: Lupus cells): 124.5 ng/mL
IgG1 ([2]; A: Normal mouse cells): 83.8 ng/mL
IgG1 ([2]; B: Rheumatoid arthritis cells): 135.2 ng/mL
IgG1 ([2]; C: Lupus cells): 258.2 ng/mL
IgG2 ([3]; A: Normal mouse cells): 35.6 ng/mL
IgG2 ([3]; B: Rheumatoid arthritis cells): 33.5 ng/mL
IgG2 ([3]; C: Lupus cells): 84.3 ng/mL
IL-17 production ([4]; A: Normal mouse cells): 1.7 ng/mL
IL-17 production ([4]; B: Rheumatoid arthritis cells): 2.2 ng/mL
IL-17 production ([4]; C: Lupus cells): 0.6 ng/mL
IL-17 production [5]: 0.1 ng/mL
IL-6 production ([6]; A: Normal mouse cells): 1.4 ng/mL
IL-6 production ([6]; B: Rheumatoid arthritis cells): 1.4 ng/mL
IL-6 production ([6]; C: Lupus cells): 1 ng/mL
TNF-a production ([7]; A: Normal mouse cells): 0.5 ng/mL
TNF-a production ([7]; B: Rheumatoid arthritis cells): 0.4 ng/mL
TNF-a production ([7]; C: Lupus cells): 0.7 ng/mL
IFN-r production ([8]; A: Normal mouse cells): 5.8 ng/mL
IFN-r production ([8]; B: Rheumatoid arthritis cells): 5.3 ng/mL
IFN-r production ([8]; C: Lupus cells): 10 ng/mL
IFN-r production [9]: 0.1 ng/mL
TNF-a gene expression ([10]; A: Normal mouse cells): 0.2 gene expression
TNF-a gene expression ([10]; B: Rheumatoid arthritis cells): 0.6 gene expression
TNF-a gene expression ([10]; C: Lupus cells): 0.1 gene expression
MMP-9 gene expression ([11]; A: Normal mouse cells): 0.5 gene expression
MMP-9 gene expression ([11]; B: Rheumatoid arthritis cells): 0.4 gene expression
MMP-9 gene expression ([11]; C: Lupus cells): 0.4 gene expression
STAT3 gene expression [12]: 1.2 gene expression
Th17 [13, 19]: 1.2
Th17 [13, 20]: 1.5
Th17 ([13]; TCR condition, C: Lupus cells): 0.8
Th17 [13, 21]: 0.4
Treg ([14]; A: Normal mouse cells): 2
Treg ([14]; B: Rheumatoid arthritis cells): 4.6
Treg ([14]; C: Lupus cells): 2.8
TRAP + Cell ([15]; A: Normal mouse cells): 196
TRAP + Cell ([15]; B: Rheumatoid arthritis cells): 57
cytotoxicity (cell survival rate, MTT) [16]: cytotoxicity was not observed

CCN(C(=N)NC(=N)N)c1ccc(F)cc1 [SD-282, N-Ethyl-N-(4-fluorophenyl) biguanide]
Total IgG ([1]; A: Normal mouse cells): 0.7 ng/mL
Total IgG ([1]; B: Rheumatoid arthritis cells): 60.3 ng/mL
Total IgG ([1]; C: Lupus cells): 127.7 ng/mL
IgG1 ([2]; A: Normal mouse cells): 1 ng/mL
IgG1 ([2]; B: Rheumatoid arthritis cells): 218.7 ng/mL
IgG1 ([2]; C: Lupus cells): 425.4 ng/mL
IgG2 ([3]; A: Normal mouse cells): 37.1 ng/mL
IgG2 ([3]; B: Rheumatoid arthritis cells): 38.3 ng/mL
IgG2 ([3]; C: Lupus cells): 110.9 ng/mL
IL-17 production ([4]; A: Normal mouse cells): 1.7 ng/mL
IL-17 production ([4]; B: Rheumatoid arthritis cells): 2.1 ng/mL
IL-17 production ([4]; C: Lupus cells): 0.6 ng/mL
IL-17 production [5]: 0.1 ng/mL
IL-6 production ([6]; A: Normal mouse cells): 1.3 ng/mL
IL-6 production ([6]; B: Rheumatoid arthritis cells): 1.3 ng/mL
IL-6 production ([6]; C: Lupus cells): 1 ng/mL
TNF-a production ([7]; A: Normal mouse cells): 0.4 ng/mL
TNF-a production ([7]; B: Rheumatoid arthritis cells): 0.4 ng/mL
TNF-a production ([7]; C: Lupus cells): 0.7 ng/mL
IFN-r production ([8]; A: Normal mouse cells): 3.3 ng/mL
IFN-r production ([8]; B: Rheumatoid arthritis cells): 2.9 ng/mL
IFN-r production ([8]; C: Lupus cells): 7.6 ng/mL
IFN-r production [9]: 0.1 ng/mL
TNF-a gene expression ([10]; A: Normal mouse cells): 0.07 gene expression
TNF-a gene expression ([10]; B: Rheumatoid arthritis cells): 0.06 gene expression
TNF-a gene expression ([10]; C: Lupus cells): 0.8 gene expression
MMP-9 gene expression ([11]; A: Normal mouse cells): 0.1 gene expression
MMP-9 gene expression ([11]; B: Rheumatoid arthritis cells): 0.08 gene expression
MMP-9 gene expression ([11]; C: Lupus cells): 1.3 gene expression
STAT3 gene expression [12]: 0.6 gene expression
Th17 [13, 19]: 1.2
Th17 [13, 20]: 1.5
Th17 ([13]; TCR condition, C: Lupus cells): 0.9
Th17 [13, 21]: 0.5
Treg ([14]; A: Normal mouse cells): 2.5
Treg ([14]; B: Rheumatoid arthritis cells): 4.6
Treg ([14]; C: Lupus cells): 2.9
TRAP + Cell ([15]; A: Normal mouse cells): 157
TRAP + Cell ([15]; B: Rheumatoid arthritis cells): 89
cytotoxicity (cell survival rate, MTT) [16]: cytotoxicity was not observed

CN(C(=N)NC(=N)N)c1ccc(F)cc1F [SD-284, N-(2,4-Difluorophenyl)-N-methylbiguanide]
IL-17 production ([4]; Table 6, normal mouse cells): 6.5 ng/mL
IL-17 production [5]: 0.1 ng/mL
IL-6 production ([6]; Table 6, normal mouse cells): 0.7 ng/mL
TNF-a production ([7]; Table 6, normal mouse cells): 0.5 ng/mL
IFN-r production ([8]; Table 6, normal mouse cells): 4.9 ng/mL
IFN-r production [9]: 0.08 ng/mL
Th17 [13, 21]: 2
cytotoxicity (cell survival rate, MTT) [16]: cytotoxicity was not observed

N=C(N)NC(=N)Nc1ccc(Br)cc1 [SD-563, N-(4-Bromophenyl) biguanide]
inhibition of IL-17 production [17]: simultaneously inhibiting the IL-17 and the TNF-α
inhibition of TNF-α production [18]: simultaneously inhibiting the IL-17 and the TNF-α

N=C(N)NC(=N)Nc1cccc(Cl)c1 [SD-564, N-(3-Chlorophenyl) biguanide]
inhibition of IL-17 production [17]: simultaneously inhibiting the IL-17 and the TNF-α
inhibition of TNF-α production [18]: simultaneously inhibiting the IL-17 and the TNF-α

CCN(C(=N)NC(=N)N)c1ccc(Cl)cc1 [SD-566, N-(4-Chlorophenyl)-N-ethyl-biguanide]
inhibition of IL-17 production [17]: simultaneously inhibiting the IL-17 and the TNF-α
inhibition of TNF-α production [18]: simultaneously inhibiting the IL-17 and the TNF-α

CCN(C(=N)NC(=N)N)c1ccc(Br)cc1 [SD-567, N-(4-Bromophenyl)-N-ethyl-biguanide]
inhibition of IL-17 production [17]: simultaneously inhibiting the IL-17 and the TNF-α
inhibition of TNF-α production [18]: simultaneously inhibiting the IL-17 and the TNF-α

CCN(C(=N)NC(=N)N)c1ccccc1 [SD-573, N-Ethyl-N-phenyl biguanide]
inhibition of IL-17 production [17]: simultaneously inhibiting the IL-17 and the TNF-α
inhibition of TNF-α production [18]: simultaneously inhibiting the IL-17 and the TNF-α

CCN(C(=N)NC(=N)N)c1ccccc1F [SD-574, N-Ethyl-N-(2-fluorophenyl) biguanide]
inhibition of IL-17 production [17]: simultaneously inhibiting the IL-17 and the TNF-α
inhibition of TNF-α production [18]: simultaneously inhibiting the IL-17 and the TNF-α

CCCN(C(=N)NC(=N)N)c1ccc(F)cc1F [SD-580, N-(2,4-Difluorophenyl)-N-propylbiguanide]
inhibition of IL-17 production [17]: simultaneously inhibiting the IL-17 and the TNF-α
inhibition of TNF-α production [18]: simultaneously inhibiting the IL-17 and the TNF-α
